Laboratory results as given in patent US12544372B2, “Methods of treating rheumatoid arthritis, chronic spontaneous urticaria, and systemic lupus erythematosis using an inhibitor of Bruton's tyrosine kinase” (Genentech, Inc., priority 2019, dated 2026).
Marks after values point to notes of the source that are not given here.

Legend:
[1] = system: patients with moderate to severe active rheumatoid arthritis; assay: Phase II RA study, Cohort 1 (inadequate response to MTX): clinical efficacy (ACR50, DAS28-3-CRP); type: in vivo, human; conditions: for DAS 28-3 (CRP) Adjusted Mean / DAS 28-3 (CRP) Difference (d): Week 12; for ACR50 Responders / ACR50 Weighted Difference vs Placebo: Week 12 Day 84; for DAS 28-3 (CRP) Difference (d): versus placebo
From the text: A Two-Cohort Randomized Phase II, Double-Blind, Parallel Group Study in Patients with Active Rheumatoid Arthritis Evaluating the Efficacy and Safety of Fenebrutinib Compared with Placebo and Adalimumab in Patients with an Inadequate Response to Previous Methotrexate Therapy (Cohort 1) and Compared with Placebo in Patients with an Inadequate Response or Intolerance to Previous TNF Therapy (Cohort 2)
This study was designed to evaluate the efficacy and safety of fenebrutinib compared with placebo (Cohorts 1 and 2) and compared with adalimumab (ADA) (Cohort 1), each in combination with methotrexate (MTX), in patients with moderate to severe active rheumatoid arthritis (RA). Specific objectives and corresponding endpoints for the study are outlined below.
The study was a multicenter, Phase II, randomized, double-blind, placebo-controlled, active comparator (Cohort 1 only), parallel-group, dose-ranging study to evaluate the efficacy and safety of fenebrutinib in patients with moderate to severe active RA and an inadequate response to previous MTX therapy (Cohort 1) or MTX and TNF therapy who may have also had exposure to no more than one non-TNF inhibitor biologic (Cohort 2). Moderate to severe active RA was defined by ≥6 tender/painful joints on motion (68 joint count) and ≥6 swollen joints (66 joint count) at both screening and Day 1 (randomization), as well as a high sensitivity C-reactive protein (hsCRP)≥0. 400 mg/dL for Cohort 1 a hsCRP≥0.650 mg/dL for Cohort 2 at screening.
The study enrolled 578 patients. […] After a screening period of up to 28 days, patients in both cohorts received blinded study drug (oral fenebrutinib or matching placebo) for 12 weeks, after which they had the option to enter an 8 week follow-up period or enroll into an open-label extension (OLE) study. In addition to study drug, patients in Cohort 1 were also treated with subcutaneous (SC) comparatory drug (ADA or placebo).
Cohort 1 treatment regimens. […]
Disease Activity Score 28. The DAS 28-4 (CRP) and the DAS 28-4 (ESR) are calculated as follows. Assessments: (i) Tender joint count of 28 joints (TJC28), square-root transformed; (ii) Swollen joint count of 28 joints (SJC28), square-root transformed; (iii) Acute-phase reactant (erythrocyte sedimentation rate [ESR mm/hr] or high sensitivity C-reactive protein [hsCRP mg/L]), log transformed; (iv) Patient's global assessment of disease activity on visual analog scale (0-100 mm).
The DAS 28 is calculated according to the following formulas: DAS 28(4)−ESR=0.56×SQRT(TJC28)+0.28SQRT(SJC28)+0.70×ln(ESR)+0.014×PtGA DAS 28(4)−CRP=0.56×SQRT(TJC28)+0.28SQRT(SJC28)+0.36×ln(CRP+1)+0.014×PtGA+0.96 • Total score: Range, 0.49-9.07 • Disease remission≤2.6 • Disease activity: Low≤3.2; Moderate d>3.2 and ≤5.1; High>5.1 (PtGA=patient's global assessment of disease activity; ln=natural logarithm; SQRT=square root)
ACR Assessments. The ACR's definition for calculating improvement in RA (ACR20) is calculated as a 20% improvement in tender and swollen joint counts and a 20% improvement in 3 of the 5 remaining ACR-core set measures: patient and physician global assessments, pain, disability, and an acute-phase reactant. Similarly, ACR50 and ACR70 are calculated with the respective percent improvements. The Sponsor, on the basis of the component parts, will calculate the ACR score.
The specific components of the ACR Assessments used in this study are as follows: Tender/Painful Joint Count (68), Swollen Joint Count (66), Patient's Assessment of Arthritis Pain, Patient's Global Assessment of Arthritis, Physician's Global Assessment of Arthritis, CRP and HAQ-DI.

[2] = system: Plasmablast signature (IgJ, Mzb1, Txndc5); assay: SLE study biomarker: plasmablast signature (RNA from blood); type: in vivo, human
Procedure: The following biomarkers were explored according to the biomarker objectives provided above in the Study Objectives. In Table 13, biomarkers are measured at baseline and subsequent timepoints during and after treatment. One set of biomarkers evaluated is the plasmablast signature. Plasmablasts are rapidly dividing, short-lived antibody secreting cells. While they represent a small proportion of B cells in the blood, they are responsible for a majority of antibody transcripts found in whole blood mRNA. The plasmablast signature comprises the biomarkers IgJ, Mzbl, and Txndc5. The gene expression of IgJ, Mzbl, and Txndc5 may be measured, for example, a polypeptide expression by evaluating the level of mRNA for said gene in a patient's blood relative to a reference level.

Q: Which “DAS 28-3 (CRP) Adjusted Mean” value ([1]; Cohort 1, 50 mg QD) does the source give for `C[C@H]1CN(C2COC2)CCN1c1ccc(Nc2cc(-c3ccnc(N4CCn5c(cc6c5CC(C)(C)C6)C4=O)c3CO)cn(C)c2=O)nc1` [fenebrutinib, (S)-2-(3′-(hydroxymethyl)-1-methyl-5-((5-(2-methyl-4-(oxetan-3-yl)piperazin-1-yl)pyridin-2-yl)amino)-6-oxo-1,6-dihydro-[3,4′-bipyridin]-2′-yl)-7,7-dimethyl-2,3,4,6,7,8-hexahydro-1H-cyclopenta[4,5]pyrrolo[1,2-a]pyrazin-1-one] here?
A: −1.54

Q: What about the “ACR50 Responders” value ([1]; Cohort 1, 50 mg QD) of the same compound?
A: 7 (17.5%)

Q: And the “ACR50 Weighted Difference vs Placebo” value ([1]; Cohort 1, 50 mg QD)?
A: 8.00

Q: And the “DAS 28-3 (CRP) Adjusted Mean” value ([1]; Cohort 1, 150 mg QD)?
A: −1.74

Q: And the “ACR50 Responders” value ([1]; Cohort 1, 150 mg QD)?
A: 30 (27.5%)

Q: What about the “ACR50 Weighted Difference vs Placebo” value ([1]; Cohort 1, 150 mg QD) of the same compound?
A: 12.93

Q: What about the “DAS 28-3 (CRP) Difference (d)” value ([1]; Cohort 1, 50 mg QD) of the same compound?
A: −0.36

Q: What about the “DAS 28-3 (CRP) Difference (d)” value ([1]; Cohort 1, 150 mg QD) of the same compound?
A: −0.57

Q: What about the “Plasmablast signature, Median Change from Baseline at Week 48” value ([2]; 150 mg QD) of the same compound?
A: −54.3%*

Q: What about the “Plasmablast signature, Median Change from Baseline at Week 48” value ([2]; 200 mg BID) of the same compound?
A: −51.7%*
